Measurements as given in US7491545B2, “Excitation ratiometric fluoroscent biosensor for zinc ion at picomolar levels” (priority 2002, dated 2009).
pKd: −log10 of the molar value. Entries after “also recorded” stand apart in the source; their conditions may differ.

What was measured:
[1] = test system: cell membranes; test: Cell permeation of donor fluorophore
[2] = target: holo carbonic anhydrase (Homo sapiens, UniProt P00918); conditions: read-out: Kd of binding to holoprotein; cited from earlier work

SMILES: CN(C)c1ccc(-c2cnc(-c3ccc(S(N)(=O)=O)cc3)o2)cc1 [Dapoxyl sulfonamide]
- cell permeability [1]: readily penetrates cell membranes; also recorded: rapidly cell-permeant
- pKd [2]: 6.70
